Source: patent US20220218800A1, “BETA-LACTAMASE COMPOSITIONS FOR TREATMENT OF GRAFT VERSUS HOST DISEASE” (Synthetic Biologics, Inc., priority 2019, published 2022)
Where two headings read alike, the source gives them in different places.

Columns and labels:
[1] = test system: Enterococcus; test: 16S sequencing of stool at day 21 post-transplantation: Enterococcus monodomination (SYN-004); assay type: in vivo, 129S1 mice
Method: This experiment was conducted to assess the effect of SYN-004 administration on modulating and/or reducing Enterococcus monodomination. The experiment was also designed to assess whether SYN-004 administration could prevent the decrease of microbiome diversity in lethally irradiated mice having undergone a bone marrow transplantation.
129S1 mice were lethally irradiated and then transplanted with bone marrow cells (B6 donor bone marrow) at 5M and defined doses of splenic T lymphocytes from C57BL/6 mice at 2M. The mice were divided in three cohorts: (1) a cohort that received administration of saline; (2) a cohort that received administration of piperacillin/tazobactam; and (3) a cohort that received administration of piperacillin/tazobactam (Zosyn, abbreviated as ZO) and SYN-004 (P3A; abbreviated as Blact).
Stool samples were collected at day 21 post-transplantation and 16S sequencing analysis was performed.

[2] = test system: total bacteria; test: 16S sequencing of mouse stool: total bacteria copies per gram of stool; assay type: in vivo, mice; conditions: FIG. 3
Method: (§1) Mice received a subcutaneous administration of 125 mg/kg piperacillin/tazobactam twice per day for two days. […] A control cohort of mice received neither piperacillin/tazobactam nor P3A via oral gavage. Another control cohort of mice received P3A only.
16S sequencing analysis was also performed to evaluate the total bacteria copies present per gram of mouse stool.

[3] = test system: Firmicutes bacterial phylum; test: 16S sequencing of mouse stool: Firmicutes level, piperacillin/tazobactam with or without P3A; assay type: in vivo, mice; conditions: FIG. 2
Method: as §1

[4] = test system: 129S1 mice; test: Survival study of antibiotic-exacerbated GVHD after bone marrow transplantation (P3A); assay type: in vivo; conditions: BM+T cells; piperacillin/tazobactam 100 mg/kg s.c. + P3A 20 mg/kg oral gavage three times per week from day 10; endpoint 30 days post-BMT; FIG. 4
Method: This experiment was conducted to assess the effect of SYN-004 administration on protecting and/or reducing GVHD severity associated with bone marrow transplantation.
129S1 mice were lethally irradiated and then transplanted with bone marrow cells (B6 donor bone marrow) at 5M and defined doses of splenic T lymphocytes from C57BL/6 mice at 2M. Both of these mice share the MHC-type H2b and thus represent a clinically relevant MHC-matched transplantation model.

[5] = Piperacillin levels in mouse stool after s.c. piperacillin/tazobactam with or without oral P3A; assay type: in vivo, mice; conditions: piperacillin/tazobactam 500 mg/kg s.c. twice per day for two days + P3A liquid formulation 10 mg/kg oral gavage twice per day for two days; FIG. 1
Method: Mice received a subcutaneous administration of 500 mg/kg piperacillin/tazobactam twice per day for two days. […] A control cohort of mice received neither piperacillin/tazobactam nor P3A via oral gavage.
After 2 days, mouse stool was evaluated for presence of piperacillin.

[6] = test system: Enterococcus; test: 16S sequencing of mouse stool: Enterococcus monodomination, imipenem+cilastatin with or without SYN-006; assay type: in vivo, mice; conditions: FIG. 8; for largest bars (genus) in 16S analysis, post-antibiotic: post-abx; for Enterococcus monodominance in stool: vs imipenem+cilastatin only
Method: (§2) Next, experiments were conducted to assess the effect of SYN-006 (P2A) administration on modulating and/or reducing Enterococcus monodomination, and specifically, overgrowth of Enterococcus faecium, in imipenem-treated mice.
(§3) Mice received a subcutaneous administration of 100 mg/kg imipenem+cilastatin for two days, with stool samples collected on the third day. […] Stool samples were collected on day 3 and 16S sequencing analysis was performed.

[7] = test system: 129S1 mice; test: Survival study of antibiotic-exacerbated GVHD after bone marrow transplantation (P2A); assay type: in vivo; conditions: BM+T cells; imipenem+cilastatin 100 mg/kg s.c. + P2A 50 mg/kg oral gavage three times per week days 10-25; endpoint 40 days post-BMT; p=0.0096, Mantel-Cox test; FIG. 10
Method: This experiment was conducted to assess the effect of SYN-006 (P2A) administration on protecting and/or reducing GVHD severity associated with bone marrow transplantation.
129S1 mice were lethally irradiated and then transplanted with bone marrow cells (B6 donor bone marrow) at 5M and defined doses of splenic T lymphocytes from C57BL/6 mice at 2M. Both of these mice share the MHC-type H2^b and thus represent a clinically relevant MHC-matched transplantation model.

[8] = test system: Firmicutes bacterial phylum; conditions: stool day 3, FIG. 7
Method: Experiments were conducted to determine whether a liquid formulation of SYN-006 (e.g., a beta-lactamase in a phosphate-buffered saline solution) could be delivered to the small and large intestine of mice via oral gavage.
Mice received a subcutaneous administration of 100 mg/kg imipenem+cilastatin for two days, with stool samples collected on the third day.
On day 3, mouse stool was collected.

[9] = test system: Enterococcus faecium; test: Relative abundance of Enterococcus faecium in stool of imipenem-treated mice; assay type: in vivo; conditions: imipenem+cilastatin 100 mg/kg s.c. alone or with P2A 1, 10, 50 mg/kg oral gavage; FIG. 9
Method: as §2, §3

[10] = piperacillin/tazobactam alone, 125 mg/kg s.c. twice per day for two days
[11] = piperacillin/tazobactam 125 mg/kg s.c. + P3A 10 mg/kg oral gavage, twice per day for two days

In the case of “piperacillin/tazobactam [reference compound]”, the “largest bars (genus) in 16S analysis” value ([1]; FIG. 5, Zosyn alone) is reported as “Enterococcus”, the “largest bars (genus) in 16S analysis” value ([1]; FIG. 6, BM (bone marrow) group, ZO alone) is reported as “Enterococcus” and the “largest bars (genus) in 16S analysis” value ([1]; FIG. 6, BM+T cells group, ZO alone) is reported as “Enterococcus”. For the same molecule, the “total bacterial copies present in mouse stool” value [2, 10] was “decreased” and the “abundance of Firmicutes in mouse stool” value [3, 10] was “reduced”.

With “SYN-004: beta-lactamase with the amino acid sequence of SEQ ID NO: 1; D276N relative to P1A” the “largest bars (genus) in 16S analysis” value ([1]; FIG. 5, Zosyn+SYN-004) was “Clostridium”, the “largest bars (genus) in 16S analysis” value ([1]; FIG. 6, BM (bone marrow) group, ZO+Blact) was “Enterococcus in the first two bars from the left and Clostridium in the next two bars from the left” and the “largest bars (genus) in 16S analysis” value ([1]; FIG. 6, BM+T cells group, ZO+Blact) was “Clostridium”. For the same molecule, the “Enterococcus monodominance in stool” value ([1]; piperacillin/tazobactam + SYN-004 vs piperacillin/tazobactam only, day 21 post-transplantation, FIG. 5 and 6) was “reduced Enterococcus monodominance”, the “total bacterial copies present in mouse stool” value [2, 11] was “decrease was reduced” and the “fold abundance of Firmicutes in mouse stool” value (“fold abundance of Firmicutes” below) [3, 11] was “recovered and protected”. For the same molecule, the “survival (mortality), antibiotic-exacerbated GVHD” value [4] was “reduced antibiotic-exacerbated GVHD” and the “amount of piperacillin in mouse stool” value [5] was “reduced”.

With “imipenem+cilastatin [reference compound]” the “largest bars (genus) in 16S analysis, post-antibiotic” value (from here on “largest bars … post-antibiotic”) ([6]; imipenem group (no P2A)) was “Enterococcus”.

B1: SYN-006: beta-lactamase polypeptide with the sequence of SEQ ID NO: 6 (protein)
chain: ETGTISISQLNKNVWVHTELGYFNGEAVPSNGLVLNTSKGLVLVDSSWDNKLTKELIEMVEKKFQKRVTDVIITHAHADRIGGITALKERGIKAHSTALTAELAKNSGYEEPLGDLQTITSLKFGNTKVETFYPGKGHTEDNIVVWLPQYQILAGGCLVKSAEAKDLGNVADAYVNEWSTSIENVLKRYGNINSVVPGHGEVGDKGLLLHTLDLLK
modifications: Synthetic polymer.
In the case of B1, the “survival (mortality), antibiotic-exacerbated GVHD” value [7] is reported as “reduced antibiotic-exacerbated GVHD”, the “fold abundance of Firmicutes” value ([8]; imipenem+cilastatin 100 mg/kg s.c. for two days + P2A 10 mg/kg oral gavage twice per day) is reported as “recovered and protected” and the “fold abundance of Firmicutes” value ([8]; imipenem+cilastatin 100 mg/kg s.c. for two days + P2A 50 mg/kg oral gavage twice per day) is reported as “recovered and protected”. The “largest bars … post-antibiotic” value ([6]; imipenem+P2A (1 mg) group) was “Enterococcus”, the “largest bars … post-antibiotic” value ([6]; imipenem+P2A (10 mg) group) was “Clostridium” and the “largest bars … post-antibiotic” value ([6]; imipenem+P2A (50 mg) group) was “Lactobacillus and Clostridium”. For the same molecule, the “Enterococcus monodominance in stool” value ([6]; imipenem+cilastatin 100 mg/kg s.c. + SYN-006 10 mg/kg oral gavage twice per day for two days) was “reduced Enterococcus monodominance”, the “Enterococcus monodominance in stool” value ([6]; imipenem+cilastatin 100 mg/kg s.c. + SYN-006 50 mg/kg oral gavage twice per day for two days) was “reduced Enterococcus monodominance” and the “overgrowth (relative abundance) of Enterococcus faecium in mouse stool” value [9] was “prevents overgrowth of Enterococcus faecium”.
